Read-outs that look alike come from different tables or passages of the source.
Legend:
[1] = system: picornaviruses (CVB1, HRV-A2, HRV-A23, EV-68); experiment: Anti-picornavirus cytopathic effect (CPE) reduction assay on HeLa H1 cells; type: cell-based; conditions: Enterovirus B, HeLa H1 cells, 48 h, category from averaging the EC50 values from four picornaviruses (CVB1, HRV-A2, HRV-A23, EV68), read-out: EC50 values of the compounds determined in the anti-picornavirus assay
Summary of the method: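 HeLa H1 cells pre-treated 2 h with serially diluted compound in DMEM/2% FBS, then infected at an MOI giving full CPE in 2 days. After 48 h at 37° C, viability read by CellTiterBlue fluorescence (ex 560/em 590 nm), normalised to infected and uninfected vehicle controls; EC50 by non-linear regression, category from mean of four viruses.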

PLA2G16 = molecular target: T1, PLA2G16 (Homo sapiens, UniProt P53816); experiment: Enzyme activity assay for PLA2G16 (Red/Green BODIPY PC-A2 fluorescence); type: biochemical; conditions: His-tagged PLA2G16, 4 min pre-incubation, 2 nM to 50 μM; read-out: IC50 values of the compounds determined in the enzyme activity assay for PLA2G16
T1 construct: Hexa-His (N); made in house; host or cells: E. coli BL21(DE3)
T1 sequence (P53816 1-162): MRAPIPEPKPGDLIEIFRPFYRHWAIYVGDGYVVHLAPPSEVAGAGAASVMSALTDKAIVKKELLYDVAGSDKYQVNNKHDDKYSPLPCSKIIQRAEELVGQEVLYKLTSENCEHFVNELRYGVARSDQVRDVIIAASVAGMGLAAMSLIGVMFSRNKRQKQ
Summary of the method: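 N-His-tagged human PLA2G16 from E. coli, Ni-NTA purified. Pre-incubated 4 min with compound (2 nM–50 μM final) in pH 8.5 Tris/NaCl buffer with 5 mM glutathione, then BODIPY PC-A2 in DOPC/DOPG/cholesterol vesicles added. Fluorescence (ex 480/em 530 nm) increase over 10 min taken as activity; IC50 by non-linear regression.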

Compound: COc1ccccc1N(C=O)C(C)C(=O)C(=O)NCC1CC1 (stereo not shown) [FP 105, N-(Cyclopropylmethyl)-3-[N-(2-methoxyphenyl)formamido]-2-oxobutanamide]
- EC50 ([1]; HeLa H1, 48 h): 1000 to 10000 nM
- IC50 (PLA2G16): < 1000 nM

Compound: O=C(NCC1CC1)C(=O)C1CCC(=O)N1Cc1ccccc1 (stereo not shown) [FP 138, 2-(1-Benzyl-5-oxopyrrolidin-2-yl)-N-(cyclopropylmethyl)-2-oxoacetamide]
- EC50 ([1]; HeLa H1, 48 h): < 1000 nM
- IC50 (PLA2G16): < 1000 nM

Compound: CC(NS(=O)(=O)c1ccc(Cl)cc1)C(=O)C(=O)NCC1CC1 (stereo not shown) [FP 215, 3-(4-Chlorobenzenesulfonamido)-N-(cyclopropylmethyl)-2-oxobutanamide]
- EC50 ([1]; HeLa H1, 48 h): 1000 to 10000 nM
- IC50 (PLA2G16): < 1000 nM

Compound: O=C(NC1CC2(COC2)C1)C(=O)[C@H]1CCC(=O)N1Cc1ccccc1 [FP 297, 2-[(2R)-1-Benzyl-5-oxopyrrolidin-2-yl]-N-{2-oxaspiro[3.3]heptan-6-yl}-2-oxoacetamide]
- EC50 ([1]; HeLa H1, 48 h): 1000 to 10000 nM
- IC50 (PLA2G16): < 1000 nM

Compound: CCC(NC(=O)c1cnccc1C)C(=O)C(=O)NCC1CCCCC1 (stereo not shown) [FP 211, N-(Cyclohexylmethyl)-3-[(4-methylpyridin-3-yl)formamido]-2-oxopentanamide]
- EC50 ([1]; HeLa H1, 48 h): 1000 to 10000 nM
- IC50 (PLA2G16): < 1000 nM

Compound: COc1ccccc1N(C=O)C(C)C(=O)C(=O)NCc1ccncc1 (stereo not shown) [FP 90, 3-[N-(2-Methoxyphenyl)formamido]-2-oxo-N-[(pyridin-4-yl)methyl]butanamide]
- EC50 ([1]; HeLa H1, 48 h): > 10000 nM
- IC50 (PLA2G16): < 1000 nM

Compound: CC(C)C(=O)N(C)C(C)C(=O)C(=O)NCC1CCCCC1 (stereo not shown) [FP 144, N-(Cyclohexylmethyl)-3-(N,2-dimethylpropanamido)-2-oxobutanamide]
- EC50 ([1]; HeLa H1, 48 h): 1000 to 10000 nM
- IC50 (PLA2G16): < 1000 nM

Compound: O=C(N[C@@H]1CCCCNC1=O)C(=O)[C@H]1CCC(=O)N1Cc1ccccc1 [FP 300, 2-[(2R)-1-Benzyl-5-oxopyrrolidin-2-yl]-2-oxo-N-[(3R)-2-oxoazepan-3-yl]acetamide]
- EC50 ([1]; HeLa H1, 48 h): 1000 to 10000 nM
- IC50 (PLA2G16): < 1000 nM

Compound: O=C(NCc1ccccn1)C(=O)C1CCC(=O)N1Cc1ccccc1 (stereo not shown) [FP 230, 2-(1-Benzyl-5-oxopyrrolidin-2-yl)-2-oxo-N-[(pyridin-2-yl)methyl]acetamide]
- EC50 ([1]; HeLa H1, 48 h): > 10000 nM
- IC50 (PLA2G16): < 1000 nM

Compound: CC(C)C(=O)N1CCC(CN(C=O)C(C)C(=O)C(=O)NCC2CCCCC2)CC1 (stereo not shown) [FP 78, N-(Cyclohexylmethyl)-3-(AN{[1-(2-methylpropanoyl)piperidin-4-yl]methyl}formamido)-2-oxobutanamide]
- EC50 ([1]; HeLa H1, 48 h): > 10000 nM
- IC50 (PLA2G16): 1000 to 10000 nM

Compound: O=CN(CC1CCOCC1)C(C(=O)C(=O)NCC1CC1)C1CC1 (stereo not shown) [FP 66, 3-Cyclopropyl-N-(cyclopropylmethyl)-3-{N-[(oxan-4-yl)methyl]formamido}-2-oxopropanamide]
- EC50 ([1]; HeLa H1, 48 h): 1000 to 10000 nM
- IC50 (PLA2G16): < 1000 nM

Compound: O=C(NCC1CCCC1)C(=O)C1CCC(=O)N1CC1CC1 (stereo not shown) [FP 255, N-(Cyclopentylmethyl)-2-[1-(cyclopropylmethyl)-5-oxopyrrolidin-2-yl]-2-oxoacetamide]
- EC50 ([1]; HeLa H1, 48 h): 1000 to 10000 nM
- IC50 (PLA2G16): < 1000 nM

Compound: O=CN(CC(=O)C(=O)NCC1CC1)Cc1ccccc1 [FP 193, 3-(N-Benzylformamido)-N-(cyclopropylmethyl)-2-oxopropanamide]
- EC50 ([1]; HeLa H1, 48 h): < 1000 nM
- IC50 (PLA2G16): < 1000 nM

Compound: NC(=O)c1cccc(CN2C(=O)CCC2C(=O)C(=O)NCC2CC2)c1 (stereo not shown) [FP 250, 3-[(2-{[(Cyclopropylmethyl)carbamoyl]carbonyl}-5-oxopyrrolidin-1-yl)methyl]benzamide]
- EC50 ([1]; HeLa H1, 48 h): 1000 to 10000 nM
- IC50 (PLA2G16): < 1000 nM

Compound: Cc1csc(CN2C(=O)CCC2C(=O)C(=O)NCC2CC2)n1 (stereo not shown)
- EC50 ([1]; CVB1|EV68|HRVA2|HRVA23, HeLa H1, 48 h): 1000 to 10000 nM
- IC50 (PLA2G16): < 1000 nM

Compound: N#Cc1ccc(CN2C(=O)CCC2C(=O)C(=O)NCC2CC2)cc1 (stereo not shown) [FP 233, 2-{1-[(4-Cyanophenyl)methyl]-5-oxopyrrolidin-2-yl}-N-(cyclopropylmethyl)-2-oxoacetamide]
- EC50 ([1]; HeLa H1, 48 h): 1000 to 10000 nM
- IC50 (PLA2G16): < 1000 nM

Compound: CC(C(=O)C(=O)NCC1CCCCC1)N(C=O)CC1CCN(C(=O)OC(C)(C)C)CC1 (stereo not shown) [FP 53, tert-Butyl 4-[(N-{1-[(cyclohexylmethyl)carbamoyl]-1-oxopropan-2-yl}formamido)-methyl]piperidine-1-carboxylate]
- EC50 ([1]; HeLa H1, 48 h): 1000 to 10000 nM
- IC50 (PLA2G16): < 1000 nM

Reference: patent US11091428B2 (HAPLOGEN GMBH, priority 2016, dated 2021)
